Experimental data as given in US20250144179A1, “PEPTIDE HORMONE TO PREVENT OR TREAT VASOSPASM, BRAIN INJURY OR CEREBRAL EDEMA” (UNIVERSITY OF FLORIDA RESEARCH FOUNDATION, INCORPORATED, priority 2022, published 2025).
“Also recorded” adds a separate entry of the source.

Columns and labels:
Format in all cases: in vivo, mouse
[1] = tested on: wild-type mice, SAH model; assay: Corner-turn preference test (sensorimotor deficits) after SAH
Experimental: Synthetic adropin^34-76 peptide was supplied from Bachem (Bubendorf, Switzerland) and diluted in 0.1% BSA in saline. 0.1% BSA in saline was used as vehicle control for all experiments. […] For experiments ending at 24 hours post-SAH, an identical dose of adropin/vehicle was given again 12 hours later. For experiments ending 7 days post-SAH, adropin/vehicle was given again on days 1, 3 & 5 post-SAH. In the aneurysm rupture model, adropin was given at a dose of 450 nmol/kg starting 3 days before aneurysm induction (elastase injection). Adropin was given every other day until sacrifice
SAH was modeled using the anterior circulation single autologous blood injection method^25,33 with minor adjustments. Mice were anesthetized with ketamine (100 mg/kg) and xylazine (10 mg/kg) before removing hair from scalp and cleaning with serial betadine—saline washes. The tail was also prepped from the base extending 1 cm distally. Mice were then fixed into a stereotaxic frame and body temperature maintained at 37° C. The scalp was incised along the sagittal suture from bregma to the nasal bone. The skin was reflected and a burr hole was drilled 5.0 mm rostral of bregma and 0.5 mm right laterally to avoid puncturing dural venous sinuses. […]

eNOS^−/− mice, SAH model = assay: Sensorimotor deficits (corner test) after SAH in eNOS knockout mice
Excerpt: All animal experiments were approved by IACUC (Institutional Animal Care and Use Committee) and performed in accordance with ARRIVE (Animal Research: Reporting of In Vivo Experiments) guidelines. All animals were 12-15-week-old females and were housed in pathogen-free housing with ad libitum food and water and 12-h light/dark cycling. Wild-type C57B1/6 mice were received from Charles River Labs (Wilmington, Mass.) and eNOS knockout mice were obtained from The Jackson Laboratory (Bar Harbor, Maine). eNOS knockout breeding pairs were genotyped prior to breeding and F1 progeny used for all experiments. The following primers were used for genotyping: eNOS knockout (Nos3^−/−): F-5′-[…]-3′, R-5′-[…]-3′. All animals underwent twice daily monitoring from institutional animal care services staff and/or investigators. Mice were randomized to treatment groups prior to surgical procedures.
Synthetic adropin^34-76 peptide was supplied from Bachem (Bubendorf, Switzerland) and diluted in 0.1% BSA in saline. 0.1% BSA in saline was used as vehicle control for all experiments. Adropin (450 nmol/kg) or an equivalent volume of vehicle was delivered via intraperitoneal injection 15 minutes post-SAH. For experiments ending at 24 hours post-SAH, an identical dose of adropin/vehicle was given again 12 hours later. For experiments ending 7 days post-SAH, adropin/vehicle was given again on days 1, 3 & 5 post-SAH. […]

[2] = Mean arterial pressure in the aneurysm rupture model; conditions: before and after aneurysm induction, adropin vs vehicle
Experimental: Synthetic adropin^34-76 peptide was supplied from Bachem (Bubendorf, Switzerland) and diluted in 0.1% BSA in saline. 0.1% BSA in saline was used as vehicle control for all experiments. Adropin (450 nmol/kg) or an equivalent volume of vehicle was delivered via intraperitoneal injection 15 minutes post-SAH. For experiments ending at 24 hours post-SAH, an identical dose of adropin/vehicle was given again 12 hours later. For experiments ending 7 days post-SAH, adropin/vehicle was given again on days 1, 3 & 5 post-SAH. In the aneurysm rupture model, adropin was given at a dose of 450 nmol/kg starting 3 days before aneurysm induction (elastase injection). Adropin was given every other day until sacrifice
Cerebral aneurysms were induced as previously described. Briefly, mice were anesthetized with ketamine (100 mg/kg) and xylazine (10 mg/kg) before the left common carotid artery and the right renal artery were ligated with 7-0 silk suture (Ethicon Inc., Somerville, New Jersey). Carotid and renal artery ligations are hereafter referred to as ligations. […]

adropin (CHSRSADVDSLSESSPNSSPGPCPEKAPPPQKPSHEGSYLLQP) [Synthetic adropin^34-76 peptide from Bachem]
sensorimotor deficits ([1]; treatment initiated at 24 hours post-SAH): ability of adropin treatment to improve sensorimotor deficits was maintained | corner turn preference (sensorimotor deficit) ([1]; up to one week post-SAH, treatment started 15 minutes post-SAH): reducing this sensorimotor deficit and normalizing corner turn preference | sensorimotor deficits (corner test turn preference) (eNOS^−/− mice, SAH model): adropin also had no effect on sensorimotor deficits | systemic blood pressure / mean arterial pressure (MAP) [2]: No difference was found in blood pressure; also recorded: no effect on MAP before or after aneurysm induction
